According to ChEMBL document CHEMBL5120898, “Bathiapeptides: Polythiazole-Containing Peptides from a Marine Biofilm-Derived Bacillus sp” (J Nat Prod, 2022):

Columns and labels:
Type in all cases: functional, cell-based
HeLa = assay: Cytotoxicity against human HeLa cells assessed as inhibition of cell growth incubated for 24 hrs by MTT assay
HepG2 = assay: Cytotoxicity against human HepG2 cells assessed as inhibition of cell growth incubated for 24 hrs by MTT assay; settings: HepG2, 24 h
MCF7 = assay: Cytotoxicity against human MCF7 cells assessed as inhibition of cell growth incubated for 24 hrs by MTT assay; settings: MCF7, 24 h
MGC-803 = assay: Cytotoxicity against human MGC-803 cells assessed as inhibition of cell growth incubated for 24 hrs by MTT assay; settings: MGC-803, 24 h

For CC[C@H](C)[C@H](NC(=O)[C@H](N)Cc1ccccc1)C(=O)N[C@H](C)c1nc(-c2nc(-c3nc(C(=O)O)cs3)cs2)cs1, the IC50 (HeLa) was > 50 µM, the IC50 (HepG2) was > 50 µM and the IC50 (MCF7) was > 50 µM. The IC50 (MGC-803) was > 50 µM.

With CC[C@H](C)[C@@H]1NC(=O)[C@@H](Cc2ccccc2)NC(=O)c2csc(n2)-c2csc(n2)-c2csc(n2)[C@@H](CO)NC1=O the IC50 (HeLa) was 16.3 µM, the IC50 (HepG2) was > 50 µM and the IC50 (MCF7) was 12.4 µM. The IC50 (MGC-803) was 15.7 µM.

For CC[C@H](C)[C@@H]1NC(=O)[C@@H](Cc2ccccc2)NC(=O)c2csc(n2)-c2csc(n2)-c2csc(n2)[C@@H](C)NC1=O, the IC50 (HeLa) was 1.5 µM, the IC50 (HepG2) was 4.1 µM and the IC50 (MCF7) was 0.5 µM. It also gave an IC50 (MGC-803) of 0.8 µM.

CC(C)[C@@H]1NC(=O)[C@@H](Cc2ccccc2)NC(=O)c2csc(n2)-c2csc(n2)-c2csc(n2)[C@@H](C)NC1=O showed an IC50 (HeLa) of 8 µM, an IC50 (HepG2) of 5 µM and an IC50 (MCF7) of 3 µM. The IC50 (MGC-803) was 2.9 µM.

For CC[C@H](C)[C@H](NC(=O)[C@@H](Cc1ccccc1)NC(C)=O)C(=O)N[C@H](C)c1nc(-c2nc(-c3nc(C(=O)O)cs3)cs2)cs1, the IC50 (HeLa) was > 50 µM, the IC50 (HepG2) was > 50 µM and the IC50 (MCF7) was > 50 µM. The IC50 (MGC-803) was > 50 µM.

CC[C@H](C)[C@@H]1NC(=O)[C@@H](Cc2ccccc2)NC(=O)c2csc(n2)-c2csc(n2)[C@@H](C)NC1=O was tested, and the IC50 (HeLa) was > 50 µM, the IC50 (HepG2) was > 50 µM and the IC50 (MCF7) was > 50 µM. The IC50 (MGC-803) was > 50 µM.

For CC[C@H](C)[C@@H]1NC(=O)[C@@H](Cc2ccccc2)NC(=O)c2csc(n2)-c2csc(n2)-c2csc(n2)[C@H](C)NC1=O, the IC50 (HeLa) was 29.6 µM, the IC50 (HepG2) was 13.1 µM and the IC50 (MCF7) was 10 µM. It also gave an IC50 (MGC-803) of 16.4 µM.

For CC[C@H](C)[C@@H]1NC(=O)[C@@H](Cc2ccccc2)NC(=O)c2csc(n2)-c2csc(n2)-c2csc(n2)CNC1=O, the IC50 (HeLa) was 4.6 µM, the IC50 (HepG2) was 4.5 µM and the IC50 (MCF7) was 2.4 µM. For the same molecule, the IC50 (MGC-803) was 5.8 µM.
